# Test results from US12590953B2, “Methods for screening cereblon modifying compounds” (CELGENE CORPORATION, priority 2018, dated 2026).
# “Also recorded” adds a separate entry of the source.
# Experiments:
# [1] = biological target: T1, SALL4 zinc finger domains / cereblon-CRL4 (Homo sapiens, UniProt Q96SW2+Q9UJQ4, G416A); test: In vitro ubiquitination of human SALL4 zinc fingers by human cereblon-CRL4; assay type: biochemical; conditions: compared with wild-type ZF2; with thalidomide
# T1 construct: Human cereblon-DDB1 (cereblon amino acids 40-442 and full length DDB1); The first zinc finger domain encompasses amino acid residues 405-432; ZZ-domain-6xHis-thrombin site (N, cleaved yes); made in house; host or cells: SF9 insect cells (cereblon-DDB1, Cul4A-Rbx1); E. coli BL21 (DE3) Star (MBP-zinc finger)
# Procedure: (§1) Purified E1, E2, ubiquitin, Cul4A-Rbx1, cereblon-DDB1, and GSPT1 proteins were used to reconstitute the ubiquitination of MBP-fused WT and mutant proteins in vitro. Substrate proteins purified by maltose affinity resin (NEB) were incubated at an approximate concentration of 30 uM. Ubiquitination components described briefly: Human cereblon-DDB1 (cereblon amino acids 40-442 and full length DDB1) and 6×his-DDB1 alone were co-expressed in SF9 insect cells in the presence of 50 μM zinc acetate, and purified by nickel affinity resin (Qiagen), HiTrap ANX column ion exchange (GE Healthcare), and Sephacryl 400 16/60 size exclusion chromatography (GE healthcare). Human full length Cul4A and Rbx1 were co-expressed in SF9 insect cells and purified by nickel affinity resin and Superdex 200 16/60 size exclusion chromatography. Purified recombinant human Ube1 E1 (E-305), UbcH5a E2 (E2-616), and ubiquitin (U-100H) were purchased from R&D systems. Components were mixed to final concentrations of 10 mM ATP, 1 μM Ube1, 25 μM UbcH5a, 200 μM Ub, 1 μM Cul4-Rbx1, 25 μM GSPT1, and 1 μM cereblon-DDB1, with or without 100 μM compound as indicated in ubiquitination assay buffer (20 mM HEPES pH 7.5, 150 mM NaCl, 10 mM MgCl2). After preincubation of E1, E2, ATP and ubiquitin for 30 minutes, and separate pre-incubation of MBP-substrate, CRBN-DDB1, Cul4-Rbx1, and compound for 5 minutes at room temperature, ubiquitination reactions were started by mixing the two pre-incubations. Reactions were incubated at 30 C for 2 hours before separation by SDS-PAGE followed by coomassie staining or immunoblot analysis.
# (§2) SALL4 contains 7 zinc finger domains, 4 of which have a glycine at the same position as cereblon substrates Ikaros and Aiolos. In this example, four domains containing these 4 glycine-containing zinc fingers were tested for compound-dependent ubiquitination by cereblon-CRL4 in a fully purified, in vitro ubiquitination system (see FIG. 1). The first zinc finger domain encompasses amino acid residues 405-432, which has a sequence of […] (SEQ ID NO: 3). The second zinc finger domain encompasses amino acid residues 589-616, which has a sequence of […] (SEQ ID NO: 4). The third zinc finger domain encompasses amino acid residues 865-892, which has a sequence of […] (SEQ ID NO: 5). The fourth zinc finger domain encompasses amino acid residues 893-920, which has a sequence of […] (SEQ ID NO: 6). Ikaros zinc finger domain (amino acid residues 140-168) was used as a control, which has a sequence of […] (SEQ ID NO: 7).
# (§3) More specifically, individual zinc finger domains of SALL4 were expressed in E. coli and purified via an MBP tag. Purified zinc fingers were then tested in an in vitro ubiquitination assay for cereblon binding and ubiquitination. Purified zinc fingers were incubated with purified cereblon-CRL4 ubiquitin ligase complex and purified ubiquitination cascade components Uba1, UbcH5a, UbcH5b, ATP, and ubiquitin.
# (§4) Ikaros and Aiolos harbor this motif within a zinc finger domain. 4 of them contain a glycine at the position necessary to mediate cereblon binding (see FIG. 1B). The human version of these four individual zinc fingers were expressed and purified for testing in our in vitro cereblon-CRL4 ubiquitination assay (see FIG. 1C). […] The existence of preferred zinc finger domains is highly reminiscent of the cereblon substrates Ikaros and Aiolos, where a single zinc finger motif mediates cereblon recruitment and degradation.
# [2] = biological target: T2, SALL4 zinc finger domains / cereblon-CRL4 (Homo sapiens, UniProt Q96SW2+Q9UJQ4); test: as above; assay type: biochemical; conditions: MBP-tagged zinc finger, thalidomide vs DMSO
# T2 construct: Human cereblon-DDB1 (cereblon amino acids 40-442 and full length DDB1); The first zinc finger domain encompasses amino acid residues 405-432; ZZ-domain-6xHis-thrombin site (N, cleaved yes); made in house; host or cells: SF9 insect cells (cereblon-DDB1, Cul4A-Rbx1); E. coli BL21 (DE3) Star (MBP-zinc finger)
# Procedure: as §1, §2, §3, §4
# [3] = biological target: T3, SALL4 zinc finger domains / cereblon-CRL4 (Homo sapiens, UniProt Q96SW2+Q9UJQ4, G600A); test: as above; assay type: biochemical; conditions: compared with wild-type ZF4; with thalidomide
# T3 construct: Human cereblon-DDB1 (cereblon amino acids 40-442 and full length DDB1); The first zinc finger domain encompasses amino acid residues 405-432; ZZ-domain-6xHis-thrombin site (N, cleaved yes); made in house; host or cells: SF9 insect cells (cereblon-DDB1, Cul4A-Rbx1); E. coli BL21 (DE3) Star (MBP-zinc finger)
# Procedure: as §1, §2, §3, §4
# [4] = biological target: T4, endogenous SALL4 in NCCIT, NETRA-2 c1.D1 and AN3-CA cancer cell lines (Homo sapiens, UniProt Q96SW2+Q9UJQ4); test: Degradation of endogenous SALL4 in cancer cell lines, western blot; assay type: cell-based; conditions: 16 hour treatment; anti-SALL4 western blot
# T4 construct: endogenous in cells; host or cells: NCCIT, NETRA-2 c1.D1 and AN3-CA cancer cell lines
# T1 sequence (Q96SW2 40-442, stated change not applied): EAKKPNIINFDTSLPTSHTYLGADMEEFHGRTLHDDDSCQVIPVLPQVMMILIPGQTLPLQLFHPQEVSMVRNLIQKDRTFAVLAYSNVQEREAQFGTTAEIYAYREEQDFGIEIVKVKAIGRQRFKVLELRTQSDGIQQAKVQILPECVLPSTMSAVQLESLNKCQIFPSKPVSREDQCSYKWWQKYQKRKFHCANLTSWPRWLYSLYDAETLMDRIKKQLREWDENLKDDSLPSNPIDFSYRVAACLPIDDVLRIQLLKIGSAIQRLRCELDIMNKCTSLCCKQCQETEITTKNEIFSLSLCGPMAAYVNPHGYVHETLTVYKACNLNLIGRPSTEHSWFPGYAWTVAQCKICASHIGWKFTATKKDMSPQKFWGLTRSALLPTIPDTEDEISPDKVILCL
# T1 sequence (Q9UJQ4 405-432 G416A): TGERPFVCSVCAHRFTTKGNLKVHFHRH
# T1 sequence (Q16531 whole entry partner, the tested form may be a part): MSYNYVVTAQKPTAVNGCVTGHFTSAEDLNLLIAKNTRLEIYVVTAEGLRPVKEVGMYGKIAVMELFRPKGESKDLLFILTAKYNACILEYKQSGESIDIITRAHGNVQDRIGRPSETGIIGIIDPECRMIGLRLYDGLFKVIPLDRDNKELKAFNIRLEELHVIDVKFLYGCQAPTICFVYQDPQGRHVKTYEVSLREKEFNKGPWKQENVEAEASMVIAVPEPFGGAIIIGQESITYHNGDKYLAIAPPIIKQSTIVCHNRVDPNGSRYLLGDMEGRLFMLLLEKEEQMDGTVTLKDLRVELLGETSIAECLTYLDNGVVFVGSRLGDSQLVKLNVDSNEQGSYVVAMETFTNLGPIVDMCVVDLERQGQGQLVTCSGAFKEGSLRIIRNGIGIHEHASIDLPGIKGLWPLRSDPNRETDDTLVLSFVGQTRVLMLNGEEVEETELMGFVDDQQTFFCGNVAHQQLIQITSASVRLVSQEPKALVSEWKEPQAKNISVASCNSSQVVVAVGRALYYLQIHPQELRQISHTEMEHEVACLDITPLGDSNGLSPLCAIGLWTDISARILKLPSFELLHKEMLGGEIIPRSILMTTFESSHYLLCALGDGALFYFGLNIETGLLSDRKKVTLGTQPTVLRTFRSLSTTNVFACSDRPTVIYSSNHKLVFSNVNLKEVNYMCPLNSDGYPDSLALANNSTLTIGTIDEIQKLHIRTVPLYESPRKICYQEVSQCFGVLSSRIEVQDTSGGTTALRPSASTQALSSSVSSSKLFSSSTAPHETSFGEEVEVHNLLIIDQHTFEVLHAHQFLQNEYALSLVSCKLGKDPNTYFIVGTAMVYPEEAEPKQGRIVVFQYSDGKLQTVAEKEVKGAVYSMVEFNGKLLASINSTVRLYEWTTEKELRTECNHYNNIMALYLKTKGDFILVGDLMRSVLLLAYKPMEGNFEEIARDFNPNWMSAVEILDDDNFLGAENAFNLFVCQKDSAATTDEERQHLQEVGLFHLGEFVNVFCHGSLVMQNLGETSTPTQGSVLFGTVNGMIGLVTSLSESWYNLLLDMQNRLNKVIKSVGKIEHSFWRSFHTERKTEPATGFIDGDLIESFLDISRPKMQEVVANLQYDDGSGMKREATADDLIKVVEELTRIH
# T1 sequence (Q13619 whole entry partner, the tested form may be a part): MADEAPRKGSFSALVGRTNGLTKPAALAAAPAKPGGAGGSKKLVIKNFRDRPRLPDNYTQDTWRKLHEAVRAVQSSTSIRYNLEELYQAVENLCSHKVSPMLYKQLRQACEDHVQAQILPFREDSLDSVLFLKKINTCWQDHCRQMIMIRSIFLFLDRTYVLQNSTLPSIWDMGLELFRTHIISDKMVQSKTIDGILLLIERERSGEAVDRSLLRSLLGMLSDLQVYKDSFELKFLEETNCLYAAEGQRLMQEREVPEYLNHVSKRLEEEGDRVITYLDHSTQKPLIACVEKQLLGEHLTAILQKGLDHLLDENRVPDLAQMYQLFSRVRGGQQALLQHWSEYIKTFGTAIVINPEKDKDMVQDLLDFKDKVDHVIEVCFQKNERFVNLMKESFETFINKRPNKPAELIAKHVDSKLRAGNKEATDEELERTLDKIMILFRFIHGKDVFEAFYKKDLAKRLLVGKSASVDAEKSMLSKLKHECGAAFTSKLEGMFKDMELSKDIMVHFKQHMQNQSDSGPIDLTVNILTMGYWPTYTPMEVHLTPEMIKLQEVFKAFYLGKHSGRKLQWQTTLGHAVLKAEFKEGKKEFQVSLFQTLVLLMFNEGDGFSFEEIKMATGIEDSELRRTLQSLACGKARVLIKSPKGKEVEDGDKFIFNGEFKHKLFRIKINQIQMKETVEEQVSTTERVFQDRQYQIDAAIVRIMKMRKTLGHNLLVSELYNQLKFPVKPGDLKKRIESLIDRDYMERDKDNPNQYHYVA
# T1 sequence (P62877 whole entry partner, the tested form may be a part): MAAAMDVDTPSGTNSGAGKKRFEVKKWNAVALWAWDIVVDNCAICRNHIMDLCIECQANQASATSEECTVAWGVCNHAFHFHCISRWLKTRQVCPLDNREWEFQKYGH
# T3 sequence (Q96SW2 40-442): as the sequence (Q96SW2 40-442, stated change not applied) above
# T3 sequence (Q9UJQ4 589-616 G600A): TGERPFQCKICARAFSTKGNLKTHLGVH
# T3 sequence (Q16531 whole entry partner, the tested form may be a part): as the sequence (Q16531 whole entry partner, the tested form may be a part) above
# T3 sequence (Q13619 whole entry partner, the tested form may be a part): as the sequence (Q13619 whole entry partner, the tested form may be a part) above
# T3 sequence (P62877 whole entry partner, the tested form may be a part): as the sequence (P62877 whole entry partner, the tested form may be a part) above
structure (smiles),measurement,setting,value
O=C1CCC(N2C(=O)c3ccccc3C2=O)C(=O)N1 (stereo not drawn) [thalidomide],Ubiquitination of G416A mutant SALL4 zinc finger 2,[1],significantly reduced upon mutation of the glycine to alanine; also recorded: significantly reduced ubiquitination
same,"Ubiquitination of SALL4 zinc finger 2 (ZF2, a.a. 410-432) by cereblon-CRL4",[2],robustly ubiquitinated in a thalidomide-dependent manner; also recorded: efficiently ubiquitinated by cereblon-CRL4 in a thalidomide-dependent manner; also recorded: efficiently ubiquitinated by human cereblon in a thalidomide-dependent manner
same,"Ubiquitination of SALL4 zinc finger 4 (ZF4, a.a. 594-616) by cereblon-CRL4",[2],"also ubiquitinated in the presence of thalidomide, but more weakly; also recorded: weak ubiquitination"
same,Ubiquitination of SALL4 zinc finger domain a.a. 405-432 by cereblon-CRL4,[2]; 100 μM compound,observed only in the presence of cereblon modifying compound; also recorded: ubiquitinated in a thalidomide-dependent manner quite strongly; also recorded: predominantly ubiquitinated by cereblon-CRL4 in a thalidomide-dependent manner
same,Ubiquitination of G600A mutant SALL4 zinc finger 4,[3],significantly reduced upon mutation of the glycine to alanine
same,Degradation of endogenous SALL4,[4],Significant compound-dependent degradation of endogenous SALL4 was observed
